Source: patent US20230146455A1, “TREATMENT OF INFLAMMATORY DISEASES WITH PEPTIDES AND PHARMACEUTICAL COMPOSITIONS” (Yuyu Pharma, Inc., priority 2020, published 2023)
Values joined by “and” are separate entries in the source; they are usually repeats but may differ in a detail not shown here. Identical values can stand only once. Where a SMILES comes first, the peptide text is derived from it. [ ]: non-standard residue; d: D form. Hyp = O=C(O)[C@@H]1C[C@@H](O)CN1

Tests used:
[1] = system: IL-6 cytokine release in poly I:C stimulated primary human corneal epithelial cells; experiment: Soluble IL-6 cytokine release in poly I:C stimulated primary human corneal epithelial cells by ELISA (Example 6); format: cell-based
From the text: To determine the effect of compound by assessing the soluble IL-6 cytokine release in poly I:C stimulated primary human corneal epithelial cells by ELISA. • Test System: Primary Human Corneal Epithelial cells • Assay Format: 96-well plate format • Method of Detection: Enzyme-linked immunosorbent assay • Assay Controls: Hinokitiol Assay protocol as shown below was used to determine the significant effect of test compounds. The data was statistically analyzed by one-way ANOVA with a Bonferroni post test comparing all the columns. The significance was represented by the p value.

MMP-9 = experiment: Example 9 Luminex, LPS hPBMCs: MMP-9; format: cell-based, human
Procedure: Treatment Human PBMCs were pretreated with YY-101, YDE-011 and YDE-043 or reference compound; Xiidra® at various concentration (ranging from 1 nM to 100 uM) for 2 h before stimulation. An equal volume of 0.5% DMSO was used as a vehicle control. Then, the cells were treated with LPS at 5 ug/ml. The supernatants from treated cells were harvested at 24 h and placed in a 96 well for Luminex cytokine & chemokine profiling using a Luminex 200 multiplex assay (Luminex; R&D system, USA).
The main study arm with triplicate wells per group in a 24-well plate: • 1. Blank • 2. PBMC: 0.5% DMSO • 3. PBMC+LPS (5 ug/ml) • 4. PBMC+YY-101 100 uM • 5. PBMC+YY-101 10 uM • 6. PBMC+YY-101 1 uM • 7. PBMC+YY-101 0.1 uM • 8. PBMC+YY-101 0.01 uM • 9. PBMC+LPS (5 ug/ml)+Xiidra®100 uM • 10. PBMC+LPS (5 ug/ml)+Xiidra® 10 uM • 11. PBMC+LPS (5 ug/ml)+Xiidra® 1 uM • 12. PBMC+LPS (5 ug/ml)+Xiidra®0.1 uM • 13. PBMC+LPS (5 ug/ml)+Xiidra®0.01 uM • 14. PBMC+LPS (5 ug/ml)+Xiidra®0.001 uM • 15. PBMC+LPS (5 ug/ml)+YY-101 100 uM • 16. PBMC+LPS (5 ug/ml)+YY-101 10 uM • 17. PBMC+LPS (5 ug/ml)+YY-101 1 uM • 18. PBMC+LPS (5 ug/ml)+YY-101 0.1 uM • 19. PBMC+LPS (5 ug/ml)+YY-101 0.01 uM • 20. PBMC+LPS (5 ug/ml)+YY-101 0.001 uM • 21. PBMC+LPS (5 ug/ml)+YDE-011 100 uM • 22. PBMC+LPS (5 ug/ml)+YDE-011 10 uM • 23. PBMC+LPS (5 ug/ml)+YDE-011 1 uM • 24. PBMC+LPS (5 ug/ml)+YDE-011 0.1 uM • 25. PBMC+LPS (5 ug/ml)+YDE-011 0.01 uM • 26. PBMC+LPS (5 ug/ml)+YDE-011 0.001 uM • 27. PBMC+LPS (5 ug/ml)+YDE-043 100 uM • 28. PBMC+LPS (5 ug/ml)+YDE-043 10 uM • 29. PBMC+LPS (5 ug/ml)+YDE-043 1 uM • 30. PBMC+LPS (5 ug/ml)+YDE-043 0.1 uM • 31. PBMC+LPS (5 ug/ml)+YDE-043 0.01 uM • 32. PBMC+LPS (5 ug/ml)+YDE-043 0.001 uM
Multiplex assay was used to measure 30 cytokines and chemokines. The 1:2, 1:10 and 1:200 diluted cell supernatant and serial dilution of the standard were dispensed into a 96 well plate at 50 ul/well. Then, the pre-mixed cocktail of antibody-coated magnetic beads was dispensed at 50 ul/well and incubated at room temperature for 2 h in a horizontal orbital microplate shaker at 800±500 rpm. The beads were washed using a magnetic device to prevent loss. The biotin-antibody was dispensed in 50 ul of each well and incubated at room temperature for 1 h in a shaker at 800±500 rpm. After washing, streptavidin-PE was added at 50 ul/well and incubated at room temperature for 30 min in a shaker under the same conditions. Finally, after washing, wash buffer (100 ul/well) was added to the plate and incubated in a shaker for 2 min. The Luminex™ 200 setting were set according to the manufacturer's protocol. The data was calculated with a standard five-parameter logistic nonlinear regression analysis of the data (xPonent software 4.2, USA). The levels of cytokine/chemokine are normalized to the live cell counts (1×10^5 cells/mL) and presented as concentrations per mL (pg/mL or ng/mL).

[2] = PBMC + LPS(5 ug/ml) + 0.001 uM, Mean
[3] = PBMC + LPS(5 ug/ml) + 0.001 uM, single replicates
[4] = PBMC + LPS(5 ug/ml) + 0.01 uM, Mean
[5] = PBMC + LPS(5 ug/ml) + 0.01 uM, single replicates
[6] = PBMC + LPS(5 ug/ml) + 0.1 uM, Mean
[7] = PBMC + LPS(5 ug/ml) + 0.1 uM, single replicates
[8] = PBMC + LPS(5 ug/ml) + 1 uM, Mean
[9] = PBMC + LPS(5 ug/ml) + 1 uM, single replicates
[10] = PBMC + LPS(5 ug/ml) + 10 uM, Mean
[11] = PBMC + LPS(5 ug/ml) + 10 uM, single replicates
[12] = PBMC + LPS(5 ug/ml) + 100 uM, Mean
[13] = PBMC + LPS(5 ug/ml) + 100 uM, single replicates

With `CC(C)C[C@H](NC(=O)[C@H](CCC(N)=O)NC(=O)CNC(=O)[C@@H]1C[C@@H](O)CN1)C(=O)NCC(=O)O` [YDE-043] (H-[Hyp]GQLG-OH; N-terminus and C-terminus assumed) as the compound, how does the “Poly I:C induced IL-6 cytokine release (in words)” value [1] read?
Its value is “attenuate Poly I:C induced of IL-6 cytokine release in a dose dependent manner”.

And the “tested concentrations with significant attenuation of IL-6 cytokine release” value [1]?
The value was 30 μM, 10 μM, 1 μM and 0.1 μM.

What about the “MMP-9 Concentration” value (MMP-9; [2]) of the same compound?
The value was 222.6 pg/mL.

What about the MMP-9 conc/live cell (MMP-9; [2]) of the same compound?
Its MMP-9 conc/live cell is 45.0 pg/10^5.

And the “MMP-9 Concentration” value (MMP-9; [3])?
The value was 170.9 pg/mL and 234.0 pg/mL and 262.8 pg/mL.

And the MMP-9 conc/live cell (MMP-9; [3])?
Its MMP-9 conc/live cell is 38.8 pg/10^5 and 39.0 pg/10^5 and 57.1 pg/10^5.

What about the “MMP-9 Concentration” value (MMP-9; [4]) of the same compound?
Its value is 186.3 pg/mL.

And the MMP-9 conc/live cell (MMP-9; [4])?
Its MMP-9 conc/live cell is 35.6 pg/10^5.

And the “MMP-9 Concentration” value (MMP-9; [5])?
Its value is 180.2 pg/mL and 186.3 pg/mL and 192.4 pg/mL.

What about the MMP-9 conc/live cell (MMP-9; [5]) of the same compound?
Its MMP-9 conc/live cell is 40.0 pg/10^5 and 28.2 pg/10^5 and 38.5 pg/10^5.

What about the “MMP-9 Concentration” value (MMP-9; [6]) of the same compound?
Its value is 173.9 pg/mL.

What about the MMP-9 conc/live cell (MMP-9; [6]) of the same compound?
The MMP-9 conc/live cell was 32.4 pg/10^5.

What about the “MMP-9 Concentration” value (MMP-9; [7]) of the same compound?
Its value is 192.4 pg/mL and 155.2 pg/mL and 174.0 pg/mL.

And the MMP-9 conc/live cell (MMP-9; [7])?
The MMP-9 conc/live cell was 38.5 pg/10^5 and 27.7 pg/10^5 and 31.1 pg/10^5.

What about the “MMP-9 Concentration” value (MMP-9; [8]) of the same compound?
The value was 178.0 pg/mL.

What about the MMP-9 conc/live cell (MMP-9; [8]) of the same compound?
The MMP-9 conc/live cell was 33.5 pg/10^5.

What about the “MMP-9 Concentration” value (MMP-9; [9]) of the same compound?
The value was 198.5 pg/mL and 155.2 pg/mL and 180.2 pg/mL.

What about the MMP-9 conc/live cell (MMP-9; [9]) of the same compound?
The MMP-9 conc/live cell was 34.2 pg/10^5 and 32.3 pg/10^5 and 34.0 pg/10^5.

What about the “MMP-9 Concentration” value (MMP-9; [10]) of the same compound?
Its value is 189.3 pg/mL.

And the MMP-9 conc/live cell (MMP-9; [10])?
Its MMP-9 conc/live cell is 35.1 pg/10^5.

What about the “MMP-9 Concentration” value (MMP-9; [11]) of the same compound?
Its value is 198.5 pg/mL and 192.4 pg/mL and 177.1 pg/mL.

What about the MMP-9 conc/live cell (MMP-9; [11]) of the same compound?
The MMP-9 conc/live cell was 38.2 pg/10^5 and 35.6 pg/10^5 and 31.6 pg/10^5.

And the “MMP-9 Concentration” value (MMP-9; [12])?
Its value is 139.0 pg/mL.

What about the MMP-9 conc/live cell (MMP-9; [12]) of the same compound?
Its MMP-9 conc/live cell is 22.1 pg/10^5.

And the “MMP-9 Concentration” value (MMP-9; [13])?
The value was 148.8 pg/mL and 129.2 pg/mL.

What about the MMP-9 conc/live cell (MMP-9; [13]) of the same compound?
The MMP-9 conc/live cell was 24.0 pg/10^5 and 20.2 pg/10^5.

How did the “Poly I:C induced IL-6 cytokine release (in words)” value [1] turn out when `CC(C)C[C@H](NC(=O)CNC(=O)[C@H](CC(C)C)NC(=O)[C@H](CCC(N)=O)NC(=O)CNC(=O)[C@@H]1C[C@@H](O)CN1)C(=O)N[C@@H](C)C(=O)NCC(=O)N1CCC[C@H]1C(=O)N[C@@H](CCCCN)C(=O)O` [YDE-011] (H-[Hyp]GQLGLAGPK-OH) was run?
The value was “attenuate Poly I:C induced of IL-6 cytokine release in a dose dependent manner”.

And the “tested concentrations with significant attenuation of IL-6 cytokine release” value [1]?
Its value is 30 μM, 10 μM, 1 μM and 0.1 μM.

What about the “MMP-9 Concentration” value (MMP-9; [2]) of the same compound?
Its value is 206.3 pg/mL.

And the MMP-9 conc/live cell (MMP-9; [2])?
Its MMP-9 conc/live cell is 39.4 pg/10^5.

And the “MMP-9 Concentration” value (MMP-9; [3])?
Its value is 228.2 pg/mL and 186.3 pg/mL and 204.5 pg/mL.

What about the MMP-9 conc/live cell (MMP-9; [3]) of the same compound?
The MMP-9 conc/live cell was 50.7 pg/10^5 and 32.1 pg/10^5 and 35.3 pg/10^5.

And the “MMP-9 Concentration” value (MMP-9; [4])?
Its value is 180.2 pg/mL.

And the MMP-9 conc/live cell (MMP-9; [4])?
The MMP-9 conc/live cell was 31.1 pg/10^5.

And the “MMP-9 Concentration” value (MMP-9; [5])?
The value was 174.0 pg/ml (2×) and 192.4 pg/ml.

What about the MMP-9 conc/live cell (MMP-9; [5]) of the same compound?
The MMP-9 conc/live cell was 27.6 pg/10^5 and 28.1 pg/10^5 and 37.7 pg/10^5.

And the “MMP-9 Concentration” value (MMP-9; [6])?
Its value is 180.2 pg/mL.

And the MMP-9 conc/live cell (MMP-9; [6])?
Its MMP-9 conc/live cell is 31.5 pg/10^5.

What about the “MMP-9 Concentration” value (MMP-9; [7]) of the same compound?
Its value is 192.4 pg/ml and 174.0 pg/ml (2×).

And the MMP-9 conc/live cell (MMP-9; [7])?
Its MMP-9 conc/live cell is 29.2 pg/10^5 and 34.8 pg/10^5 and 30.5 pg/10^5.

And the “MMP-9 Concentration” value (MMP-9; [8])?
The value was 188.3 pg/mL.

What about the MMP-9 conc/live cell (MMP-9; [8]) of the same compound?
The MMP-9 conc/live cell was 37.5 pg/10^5.

What about the “MMP-9 Concentration” value (MMP-9; [9]) of the same compound?
The value was 192.4 pg/ml (2×) and 180.2 pg/ml.

And the MMP-9 conc/live cell (MMP-9; [9])?
Its MMP-9 conc/live cell is 35.0 pg/10^5 and 37.5 pg/10^5 and 40.1 pg/10^5.

And the “MMP-9 Concentration” value (MMP-9; [10])?
Its value is 190.4 pg/mL.

And the MMP-9 conc/live cell (MMP-9; [10])?
Its MMP-9 conc/live cell is 36.1 pg/10^5.

What about the “MMP-9 Concentration” value (MMP-9; [11]) of the same compound?
The value was 186.3 pg/ml (2×) and 198.5 pg/ml.

And the MMP-9 conc/live cell (MMP-9; [11])?
Its MMP-9 conc/live cell is 34.5 pg/10^5 and 34.2 pg/10^5 and 39.6 pg/10^5.

What about the “MMP-9 Concentration” value (MMP-9; [12]) of the same compound?
Its value is 167.8 pg/mL.

What about the MMP-9 conc/live cell (MMP-9; [12]) of the same compound?
The MMP-9 conc/live cell was 27.7 pg/10^5.

What about the “MMP-9 Concentration” value (MMP-9; [13]) of the same compound?
The value was 167.8 pg/mL and 174.0 pg/mL and 161.5 pg/mL.

And the MMP-9 conc/live cell (MMP-9; [13])?
The MMP-9 conc/live cell was 27.5 pg/10^5 and 28.5 pg/10^5 and 26.9 pg/10^5.
